Among the data in patent publication US7629341B2, “Human ADAM-10 inhibitors” (Symphony Evolution, Inc., priority 2003, dated 2009) are IC50 values, retold here.

Assay [1] has as its target T1, ADAM-10 (UniProt O14672).
T1 sequence (O14672 1-748): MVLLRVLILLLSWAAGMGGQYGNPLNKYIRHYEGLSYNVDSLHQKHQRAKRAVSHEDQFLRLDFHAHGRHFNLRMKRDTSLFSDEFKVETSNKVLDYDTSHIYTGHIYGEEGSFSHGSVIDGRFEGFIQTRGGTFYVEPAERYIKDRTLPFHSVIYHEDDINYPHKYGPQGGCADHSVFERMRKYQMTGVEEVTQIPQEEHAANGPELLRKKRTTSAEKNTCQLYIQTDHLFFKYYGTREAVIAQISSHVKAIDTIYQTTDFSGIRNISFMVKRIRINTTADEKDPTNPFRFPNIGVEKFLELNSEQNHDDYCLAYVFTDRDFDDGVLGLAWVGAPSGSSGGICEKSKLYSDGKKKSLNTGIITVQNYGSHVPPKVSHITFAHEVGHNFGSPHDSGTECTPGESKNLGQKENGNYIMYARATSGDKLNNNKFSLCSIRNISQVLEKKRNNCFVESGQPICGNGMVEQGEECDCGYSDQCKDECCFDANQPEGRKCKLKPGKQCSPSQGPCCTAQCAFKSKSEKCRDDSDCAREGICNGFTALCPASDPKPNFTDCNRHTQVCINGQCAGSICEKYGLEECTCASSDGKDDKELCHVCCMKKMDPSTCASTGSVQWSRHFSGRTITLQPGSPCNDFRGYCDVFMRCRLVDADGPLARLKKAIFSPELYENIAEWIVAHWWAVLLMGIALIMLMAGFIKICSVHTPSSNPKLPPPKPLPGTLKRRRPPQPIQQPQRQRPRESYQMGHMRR
Nature of the assay: ADAM-10 enzyme assay, cleavage of a fluorogenic 10-residue peptide.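 Also: mouse or human ADAM-10 at 5 nM active enzyme, pH 8.0 HEPES buffer with CaCl2 and NP-40, compounds titrated 100 µM down to 0.5 nM, fluorescence read after 16 h at room temperature.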 In kind it is biochemical, mouse or human (mADAM-10 or hADAM-10). Conditions: in vitro.
Description: mADAM-10 or hADAM-10 activity was measured as the ability to cleave a 10-residue peptide (DABCYL-Leu-Leu-Ala-Gln-Lys-*-LeuArg-Ser-Ser-Arg-EDANS). […] Enzyme was diluted to a final active concentration of 5 nM in Buffer A (50 mM HEPES 8.0, 100 mM NaCl, 1 mM CaCl2 and 0.01% NP-40). Serial dilutions for compounds were performed ranging from 100 μM to 0.5 nM using a Beckman Biomek 2000 in polypropylene plates (Greiner). […] This reaction was incubated for 16 hr at RT and fluorescence was read using identical conditions.

Assay [2] has as its target MMP-13 (collagenase-3) (Homo sapiens, UniProt P45452). The assay is described as follows: In vitro metalloprotease inhibition, MMP-13. Format: biochemical.
Assay [3] concerns the target MMP-3 (Stromelysin-1) (Homo sapiens, UniProt P08254). Nature of the assay: In vitro metalloprotease inhibition, MMP-3. Format: biochemical. An excerpt:
(§1) Blank cells indicate lack of data only.

Assay [4] deals with T2, MMP-1 (Fibroblast collagenase) (Homo sapiens, UniProt P03956).
T2 sequence (P03956 100-469): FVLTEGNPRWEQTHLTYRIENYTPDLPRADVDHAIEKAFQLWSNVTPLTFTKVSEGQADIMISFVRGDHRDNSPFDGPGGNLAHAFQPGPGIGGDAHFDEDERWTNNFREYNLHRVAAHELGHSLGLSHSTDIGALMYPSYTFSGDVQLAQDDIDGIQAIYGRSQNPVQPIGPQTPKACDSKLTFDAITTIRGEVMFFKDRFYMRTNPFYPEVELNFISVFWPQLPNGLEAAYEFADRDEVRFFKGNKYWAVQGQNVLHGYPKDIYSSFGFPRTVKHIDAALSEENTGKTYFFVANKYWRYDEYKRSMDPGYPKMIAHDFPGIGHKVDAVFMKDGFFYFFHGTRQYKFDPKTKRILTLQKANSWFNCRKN
Nature of the assay: In vitro metalloprotease inhibition, MMP-1. Format: biochemical.
Description: as §1

In assay [5] the target is T3, MMP-2 (72 kDa gelatinase, gelatinase A) (Homo sapiens, UniProt P08253).
T3 sequence (P08253 110-660): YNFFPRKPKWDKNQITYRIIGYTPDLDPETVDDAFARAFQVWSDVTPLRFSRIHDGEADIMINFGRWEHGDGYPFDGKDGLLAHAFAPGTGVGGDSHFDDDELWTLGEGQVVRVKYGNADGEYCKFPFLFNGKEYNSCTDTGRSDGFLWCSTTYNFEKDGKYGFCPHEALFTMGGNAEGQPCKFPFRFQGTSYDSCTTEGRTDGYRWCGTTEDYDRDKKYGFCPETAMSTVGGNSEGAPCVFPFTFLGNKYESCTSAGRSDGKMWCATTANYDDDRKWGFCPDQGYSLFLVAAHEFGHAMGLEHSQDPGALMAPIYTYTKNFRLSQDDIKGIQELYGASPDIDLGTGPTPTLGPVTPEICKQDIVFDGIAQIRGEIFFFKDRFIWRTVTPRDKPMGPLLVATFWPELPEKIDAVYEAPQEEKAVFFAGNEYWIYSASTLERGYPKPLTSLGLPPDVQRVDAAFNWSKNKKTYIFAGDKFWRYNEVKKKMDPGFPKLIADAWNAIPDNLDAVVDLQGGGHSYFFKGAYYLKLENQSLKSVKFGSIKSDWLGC
The assay is described as follows: In vitro metalloprotease inhibition, MMP-2. Format: biochemical.

Sequence of MMP-3 (Stromelysin-1) (P08254 100-477, species assumed): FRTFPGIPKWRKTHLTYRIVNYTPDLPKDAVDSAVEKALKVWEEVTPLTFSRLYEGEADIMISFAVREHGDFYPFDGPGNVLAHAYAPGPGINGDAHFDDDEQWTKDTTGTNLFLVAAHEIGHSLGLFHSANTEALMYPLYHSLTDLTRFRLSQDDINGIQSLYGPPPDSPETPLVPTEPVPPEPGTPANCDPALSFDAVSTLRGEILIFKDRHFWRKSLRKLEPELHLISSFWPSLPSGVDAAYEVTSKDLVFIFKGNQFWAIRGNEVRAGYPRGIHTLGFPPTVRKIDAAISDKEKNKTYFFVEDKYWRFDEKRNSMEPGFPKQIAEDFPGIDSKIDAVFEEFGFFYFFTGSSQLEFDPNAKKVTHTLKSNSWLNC

As usually defined, the IC50 is the concentration that gives 50% inhibition. Read a high IC50 as weaker potency in that assay. For `O=C(NO)[C@H]1CNCCN1S(=O)(=O)c1cc(F)c(Oc2ccc(F)cc2)c(F)c1` [Entry 11], the IC50 in assay [1] is 50 to 1000 nM; in assay [2], over 20000 nM; in assay [3] it was 1000 to 20000 nM; in assay [4] it was over 20000 nM; in assay [5], 50 to 1000 nM.

For `O=C(NO)[C@H]1CN(C(=O)N2CCOCC2)CCN1S(=O)(=O)c1ccc(-c2cccc(F)c2)nc1` [Entry 58], the IC50 in assay [1] was under 50 nM; in assay [2], under 50 nM; in assay [3], 50 to 1000 nM; in assay [4], 50 to 1000 nM; in assay [5], under 50 nM.

`O=C(NO)[C@H]1CN(C(=O)OCc2ccccc2)CCN1S(=O)(=O)c1cc(F)c(Oc2ccc(Cl)cc2)c(F)c1` [Entry 32]: the IC50 was under 50 nM in assay [1]; under 50 nM in assay [2]; 50 to 1000 nM in assay [3]; 1000 to 20000 nM in assay [4]; under 50 nM in assay [5].

Turning to `O=C(NO)[C@H]1CN(C(=O)OCCN2CCCC2)CCN1S(=O)(=O)c1cc(F)c(Oc2ccc(Cl)cc2)c(F)c1` [Entry 18], the IC50 in assay [1] was under 50 nM; in assay [2], under 50 nM; in assay [3], 50 to 1000 nM; in assay [4], over 20000 nM; in assay [5], under 50 nM.

`O=C(NO)[C@H]1CN(C(=O)NCCN2CCCC2)CCN1S(=O)(=O)c1cc(F)c(Oc2ccc(Cl)cc2)c(F)c1` [Entry 17]: the IC50 in assay [1] was under 50 nM; in assay [2], under 50 nM; in assay [3], 50 to 1000 nM; in assay [4] it was 1000 to 20000 nM; in assay [5] it was under 50 nM.

With `O=C(NO)[C@H]1CN(C(=O)Cc2ccncc2)CCN1S(=O)(=O)c1cc(F)c(Oc2ccc(Cl)cc2)c(F)c1` [Entry 52], the IC50 in assay [1] was under 50 nM; in assay [2], under 50 nM; in assay [3], 1000 to 20000 nM; in assay [4], 1000 to 20000 nM; in assay [5] it was under 50 nM.

Consider `CN(C)S(=O)(=O)N1CCN(S(=O)(=O)c2cc(F)c(Oc3ccc(Cl)cc3)c(F)c2)[C@@H](C(=O)NO)C1` [Entry 36], for which the IC50 in assay [1] is under 50 nM; in assay [2], under 50 nM; in assay [3], 50 to 1000 nM; in assay [4] it was 1000 to 20000 nM; in assay [5], under 50 nM.

As to `O=C(NO)[C@H]1CN(C(=O)c2ccc(-c3ccccc3)cc2)CCN1S(=O)(=O)c1cc(F)c(Oc2ccc(Cl)cc2)c(F)c1` [Entry 51], the IC50 fell in the range of 50 to 1000 nM in assay [1]; 50 to 1000 nM in assay [2]; 1000 to 20000 nM in assay [3]; 1000 to 20000 nM in assay [4]; 50 to 1000 nM in assay [5].

`O=C(NO)[C@H]1CN(C(=O)N2CCOCC2)CCN1S(=O)(=O)c1ccc(Oc2ccc(F)cc2)c(F)c1` [Entry 8]: the IC50 in assay [1] is under 50 nM; in assay [2], under 50 nM; in assay [3], under 50 nM; in assay [4] it was 50 to 1000 nM; in assay [5], under 50 nM.

Take `CN(C)c1ccc2c(S(=O)(=O)N3CCN(S(=O)(=O)c4cc(F)c(Oc5ccc(Cl)cc5)c(F)c4)[C@@H](C(=O)NO)C3)cccc2c1` [Entry 49]: the IC50 was 1000 to 20000 nM in assay [1]; under 50 nM in assay [2]; 50 to 1000 nM in assay [3]; over 20000 nM in assay [4]; under 50 nM in assay [5].

As for `O=C(NO)[C@H]1CN(S(=O)(=O)Cc2cc(Cl)cc(Cl)c2)CCN1S(=O)(=O)c1cc(F)c(Oc2ccc(Cl)cc2)c(F)c1` [Entry 61], the IC50 is 50 to 1000 nM in assay [1]; 1000 to 20000 nM in assay [2]; over 20000 nM in assay [3]; over 20000 nM in assay [4]; 1000 to 20000 nM in assay [5].

As to `O=C(NO)[C@H]1CN(C(=O)CN2CCOCC2)CCN1S(=O)(=O)c1cc(F)c(Oc2ccc(Cl)cc2)c(F)c1` [Entry 25], the half-maximal inhibitory concentration (IC50) is under 50 nM in assay [1]; under 50 nM in assay [2]; 50 to 1000 nM in assay [3]; over 20000 nM in assay [4]; under 50 nM in assay [5].

On to `CCOC(=O)N1CCN(S(=O)(=O)c2cc(F)c(Oc3ccc(F)cc3)c(F)c2)[C@@H](C(=O)NO)C1` [Entry 13], for which the 50% inhibitory concentration (IC50) is under 50 nM in assay [1]; under 50 nM in assay [2]; 50 to 1000 nM in assay [3]; 1000 to 20000 nM in assay [4]; under 50 nM in assay [5].

Turning to `CN1CCN(S(=O)(=O)c2cc(F)c(Oc3ccc(F)cc3)c(F)c2)[C@@H](C(=O)NO)C1` [Entry 14], the IC50 was 50 to 1000 nM in assay [1]; under 50 nM in assay [2]; over 20000 nM in assay [3]; over 20000 nM in assay [4]; under 50 nM in assay [5].

Take `O=C(NO)[C@H]1CN(S(=O)(=O)CCN2CCCCC2)CCN1S(=O)(=O)c1cc(F)c(Oc2ccc(Cl)cc2)c(F)c1` [Entry 53]: the IC50 in assay [1] was under 50 nM; in assay [2], under 50 nM; in assay [3], 50 to 1000 nM; in assay [4], 50 to 1000 nM; in assay [5], under 50 nM.

For the compound `CCOC(=O)N1CCN(CCS(=O)(=O)N2CCN(S(=O)(=O)c3cc(F)c(Oc4ccc(Cl)cc4)c(F)c3)[C@@H](C(=O)NO)C2)CC1` [Entry 56], the IC50 in assay [1] was under 50 nM; in assay [2] it was under 50 nM; in assay [3] it was 50 to 1000 nM; in assay [4] it was 1000 to 20000 nM; in assay [5], under 50 nM.

For `O=C(NO)[C@H]1CN(S(=O)(=O)c2cccc3cnccc23)CCN1S(=O)(=O)c1cc(F)c(Oc2ccc(Cl)cc2)c(F)c1` [Entry 48], the IC50 in assay [1] is under 50 nM; in assay [2], under 50 nM; in assay [3], 50 to 1000 nM; in assay [4] it was over 20000 nM; in assay [5], under 50 nM.

With `O=C(NO)[C@H]1CN(C(=O)N2CCOCC2)CCN1S(=O)(=O)c1cc(F)c(Oc2ccc(F)cc2)c(F)c1` [Entry 12], the IC50 in assay [1] is under 50 nM; in assay [2], under 50 nM; in assay [3], 50 to 1000 nM; in assay [4], 1000 to 20000 nM; in assay [5], under 50 nM.

`CCOC(=O)N1CCN(CC(=O)N2CCN(S(=O)(=O)c3cc(F)c(Oc4ccc(Cl)cc4)c(F)c3)[C@@H](C(=O)NO)C2)CC1` [Entry 23]: the concentration for half-maximal inhibition (IC50) is under 50 nM in assay [1]; under 50 nM in assay [2]; 1000 to 20000 nM in assay [3]; over 20000 nM in assay [4]; under 50 nM in assay [5].

Take `COCCOC(=O)N1CCN(S(=O)(=O)c2ccc(Oc3ccc(F)cc3)cc2)[C@@H](C(=O)NO)C1` [Entry 1]: the IC50 in assay [1], in assay [2], in assay [3], in assay [4] and in assay [5] was under 50 nM in each case.

For the compound `COCCOC(=O)N1CCN(S(=O)(=O)c2cc(F)c(Oc3ccccc3)c(F)c2)[C@@H](C(=O)NO)C1` [Entry 40], the IC50 is under 50 nM in assay [1]; under 50 nM in assay [2]; 50 to 1000 nM in assay [3]; 1000 to 20000 nM in assay [4]; under 50 nM in assay [5].

In the case of `CN1CCC(OC(=O)N2CCN(S(=O)(=O)c3cc(F)c(Oc4ccc(Cl)cc4)c(F)c3)[C@@H](C(=O)NO)C2)CC1` [Entry 22], the IC50 in assay [1] is under 50 nM; in assay [2], under 50 nM; in assay [3] it was 50 to 1000 nM; in assay [4], 1000 to 20000 nM; in assay [5] it was under 50 nM.

As for `O=C(NO)[C@H]1CN(C(=O)c2ccncc2)CCN1S(=O)(=O)c1cc(F)c(Oc2ccc(Cl)cc2)c(F)c1` [Entry 42], the IC50 was under 50 nM in assay [1]; under 50 nM in assay [2]; 1000 to 20000 nM in assay [3]; 1000 to 20000 nM in assay [4]; under 50 nM in assay [5].
